Earlier results, collected in patent US7838544B2, “Heterocyclic inhibitors of 11-β hydroxyl steroid dehydrogenase type 1 and methods of using the same” (Incyte Corporation, priority 2006, dated 2010).

Target: T1, 11βHSD1 in the eye (Homo sapiens, UniProt P28845)
T1 construct: host or cells: eye of healthy volunteers, in vivo (11βHSD1 localized to non-pigmented epithelial cells)
Settings: healthy volunteers, after seven days of carbenoxolone treatment

T1 sequence (P28845 whole entry): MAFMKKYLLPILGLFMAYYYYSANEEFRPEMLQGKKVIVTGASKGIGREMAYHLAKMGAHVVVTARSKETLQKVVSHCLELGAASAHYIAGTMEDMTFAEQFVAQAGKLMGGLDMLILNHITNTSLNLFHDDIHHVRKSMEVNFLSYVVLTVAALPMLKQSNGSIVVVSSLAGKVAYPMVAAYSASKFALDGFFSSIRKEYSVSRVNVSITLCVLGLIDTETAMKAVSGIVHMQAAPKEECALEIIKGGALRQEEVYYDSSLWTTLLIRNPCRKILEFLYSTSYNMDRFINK

CC1(C)[C@@H](OC(=O)CCC(=O)O)CC[C@]2(C)[C@H]3C(=O)C=C4[C@@H]5C[C@@](C)(C(=O)O)CC[C@]5(C)CC[C@@]4(C)[C@]3(C)CC[C@@H]12 [carbenoxolone]
reduction of intra-ocular pressure (IOP): 18%
